target: Coagulation factor X (Homo sapiens, UniProt P00742); experiment: In vitro inhibitory activity against Coagulation factor X was determined; conditions: not given
Sequence (P00742 41-179 limits assumed): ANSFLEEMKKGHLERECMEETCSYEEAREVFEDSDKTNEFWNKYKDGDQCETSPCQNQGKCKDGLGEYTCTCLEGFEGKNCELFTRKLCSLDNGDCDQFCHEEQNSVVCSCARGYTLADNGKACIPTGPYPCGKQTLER
Sequence (P00742 235-488 limits assumed): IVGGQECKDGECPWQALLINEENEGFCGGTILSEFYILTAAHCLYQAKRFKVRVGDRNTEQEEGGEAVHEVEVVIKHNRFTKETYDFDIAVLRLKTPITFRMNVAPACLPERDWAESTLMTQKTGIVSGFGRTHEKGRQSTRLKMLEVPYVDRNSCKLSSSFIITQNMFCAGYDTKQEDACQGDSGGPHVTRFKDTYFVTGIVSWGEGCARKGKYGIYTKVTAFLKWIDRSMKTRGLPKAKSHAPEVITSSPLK

IC50 | SMILES
0.007 µM | CN1CCN=C1c1ccc(C(=O)N2CCN(S(=O)(=O)c3cc4cc(Cl)ccc4[nH]3)CC2CC(=O)N2CCCCC2)cc1 (stereo not given)
0.029 µM | CN1CCN=C1c1ccc(C(=O)N2CCN(S(=O)(=O)c3cc4ccc(Cl)cc4s3)CC2CC(=O)O)cc1 (stereo not given)
0.019 µM | C#CCN(C)C(=O)CC1CN(S(=O)(=O)c2cc3ccc(Cl)cc3s2)CCN1C(=O)c1ccc(C2=NCCN2C)cc1 (stereo not given)
0.084 µM | N=C(c1ccc(C(=O)N2CCN(S(=O)(=O)c3cc4cc(Cl)ccc4[nH]3)CC2)cc1)N1CCCC1
0.007 µM | CN(C)C(=O)CC1CN(S(=O)(=O)c2cc3ccc(Cl)cc3s2)CCN1C(=O)c1ccc(C2=NCCN2C)cc1 (stereo not given)
0.041 µM | CN1CCN=C1c1ccc(C(=O)N2CCN(S(=O)(=O)c3cc4cc(Cl)ccc4[nH]3)CC2CC(=O)O)cc1 (stereo not given)
0.02 µM | CN(C)C(=N)c1ccc(C(=O)N2CCN(S(=O)(=O)c3cc4cc(Cl)ccc4[nH]3)CC2)cc1
0.018 µM | CN1CCN=C1c1ccc(C(=O)N2CCN(S(=O)(=O)c3cc4cc(Cl)ccc4[nH]3)CC2CC(N)=O)cc1 (stereo not given)
0.24 µM | N=C(c1ccc(CN2CCN(S(=O)(=O)c3cc4cc(Cl)ccc4[nH]3)CC2=O)cc1)N1CCCC1
0.59 µM | CN1CCN=C1c1ccc(C(=O)N2CCN(S(=O)(=O)c3cc4ccc(Cl)cc4[nH]3)CC2)cc1
0.009 µM | CN1CCN=C1c1ccc(C(=O)N2CCN(S(=O)(=O)c3cc4ccc(Cl)cc4s3)CC2)cc1
0.27 µM | CN1CCN=C1c1ccc(C(=O)N2CCN(S(=O)(=O)c3cc4cc(Cl)ccc4s3)CC2)cc1
0.011 µM | N=C(c1ccc(CN2CCN(S(=O)(=O)c3cc4ccc(Cl)cc4s3)CC2=O)cc1)N1CCC1
0.057 µM | CN1CCN=C1c1ccc(CN2CCN(S(=O)(=O)c3cc4cc(Cl)ccc4[nH]3)CC2=O)cc1
0.16 µM | N=C(c1ccc(C(=O)N2CCN(S(=O)(=O)c3ccc4cc(Br)ccc4c3)CC2)cc1)N1CCCCC1
0.045 µM | CN1CCN=C1c1ccc(CN2CCN(S(=O)(=O)c3cc4ccc(Cl)cc4s3)CC2=O)cc1
0.008 µM | CN1CCN=C1c1ccc(C(=O)N2CCN(S(=O)(=O)c3cc4ccc(Cl)cc4s3)CC2CC(=O)N2CCC(C(=O)O)CC2)cc1 (stereo not given)
0.011 µM | CNC(=O)CC1CN(S(=O)(=O)c2cc3cc(Cl)ccc3[nH]2)CCN1C(=O)c1ccc(C2=NCCN2C)cc1 (stereo not given)
0.15 µM | N=C(c1ccc(CN2CCN(S(=O)(=O)c3cc4cc(Cl)ccc4[nH]3)CC2=O)cc1)N1CCCCC1
0.006 µM | CN1CCN=C1c1ccc(C(=O)N2CCN(S(=O)(=O)c3cc4ccc(Cl)cc4s3)CC2CC(=O)N2CCCC2)cc1 (stereo not given)
0.071 µM | N=C(c1ccc(C(=O)N2CCN(S(=O)(=O)c3cc4ccc(Cl)cc4s3)CC2)cc1)N1CCCCC1

IC50 | SMILES
0.1 µM | N=C(c1ccc(CN2CCN(S(=O)(=O)c3cc4ccc(Cl)cc4s3)CC2=O)cc1)N1CCCCC1
0.037 µM | CN(C)C(=N)c1ccc(CN2CCN(S(=O)(=O)c3cc4cc(Cl)ccc4[nH]3)CC2=O)cc1
0.008 µM | CN1CCN=C1c1ccc(C(=O)N2CCN(S(=O)(=O)c3cc4ccc(Cl)cc4s3)CC2CC(=O)N2CCN(c3ccncc3)CC2)cc1 (stereo not given)
0.024 µM | N=C(c1ccc(C(=O)N2CCN(S(=O)(=O)c3cc4cc(Cl)ccc4[nH]3)CC2)cc1)N1CCC1
0.036 µM | CCN1CCN=C1c1ccc(C(=O)N2CCN(S(=O)(=O)c3cc4ccc(Cl)cc4s3)CC2)cc1
0.011 µM | CN1CCN=C1c1ccc(C(=O)N2CCN(S(=O)(=O)c3cc4cc(Cl)ccc4[nH]3)CC2CC(=O)N2CCOCC2)cc1 (stereo not given)
0.39 µM | N=C(c1ccc(C(=O)N2CCN(S(=O)(=O)c3ccc4cc(Br)ccc4c3)CC2)cc1)N1CCCC1
0.012 µM | CN1CCN=C1c1ccc(C(=O)N2CCN(S(=O)(=O)c3cc4cc(Cl)ccc4[nH]3)CC2C(=O)O)cc1 (stereo not given)
0.007 µM | CN1CCN=C1c1ccc(C(=O)N2CCN(S(=O)(=O)c3cc4cc(Cl)ccc4[nH]3)CC2CC(=O)N2CCCC2)cc1 (stereo not given)
0.64 µM | N=C(c1ccc(C(=O)N2CCN(S(=O)(=O)c3ccc4cc(Br)ccc4c3)CC2)cc1)N1CCOCC1
0.008 µM | N=C(c1ccc(CN2CCN(S(=O)(=O)c3cc4cc(Cl)ccc4[nH]3)CC2=O)cc1)N1CCC1
0.064 µM | N=C(N)c1ccc(C(=O)N2CCN(S(=O)(=O)c3ccc4cc(Br)ccc4c3)CC2)cc1
0.067 µM | CCN1CCN=C1c1ccc(C(=O)N2CCN(S(=O)(=O)c3ccc4cc(Br)ccc4c3)CC2)cc1
0.027 µM | COC(=O)C1CN(S(=O)(=O)c2cc3cc(Cl)ccc3[nH]2)CCN1C(=O)c1ccc(C2=NCCN2C)cc1 (stereo not given)
0.013 µM | COC(=O)CC1CN(S(=O)(=O)c2cc3ccc(Cl)cc3s2)CCN1C(=O)c1ccc(C2=NCCN2C)cc1 (stereo not given)
0.14 µM | N=C(c1ccc(CN2CCN(S(=O)(=O)c3cc4ccc(Cl)cc4s3)CC2=O)cc1)N1CCCC1
0.027 µM | CN(C)C(=N)c1ccc(C(=O)N2CCN(S(=O)(=O)c3cc4ccc(Cl)cc4s3)CC2)cc1
0.01 µM | CN1CCN=C1c1ccc(C(=O)N2CCN(S(=O)(=O)c3cc4ccc(Cl)cc4s3)CC2CC(=O)N2CCC2)cc1 (stereo not given)
0.008 µM | CN1CCN=C1c1ccc(C(=O)N2CCN(S(=O)(=O)c3cc4cc(Cl)ccc4[nH]3)CC2CC(=O)N2CCN(c3ccncc3)CC2)cc1 (stereo not given)
0.43 µM | CN1CCCN=C1c1ccc(C(=O)N2CCN(S(=O)(=O)c3ccc4cc(Br)ccc4c3)CC2)cc1
0.014 µM | C#CCN(C)C(=O)CC1CN(S(=O)(=O)c2cc3cc(Cl)ccc3[nH]2)CCN1C(=O)c1ccc(C2=NCCN2C)cc1 (stereo not given)

IC50 | SMILES
> 11 µM | CN1CCN=C1c1ccc(C(=O)N2CCN(C(=O)c3cc4cc(Cl)ccc4[nH]3)CC2)cc1
0.008 µM | COC(=O)C1CCN(C(=O)CC2CN(S(=O)(=O)c3cc4ccc(Cl)cc4s3)CCN2C(=O)c2ccc(C3=NCCN3C)cc2)CC1 (stereo not given)
1.3 µM | O=C(c1ccc(C2=NCCCN2)cc1)N1CCN(S(=O)(=O)c2ccc3cc(Br)ccc3c2)CC1
0.025 µM | N=C(c1ccc(C(=O)N2CCN(S(=O)(=O)c3cc4ccc(Cl)cc4s3)CC2)cc1)N1CCC1
0.003 µM | COC(=O)CC1CN(S(=O)(=O)c2cc3cc(Cl)ccc3[nH]2)CCN1C(=O)c1ccc(C2=NCCN2C)cc1 (stereo not given)
0.015 µM | CN1CCN=C1c1ccc(C(=O)N2CCN(S(=O)(=O)c3cc4ccc(Cl)cc4s3)CC2CC(=O)N2CCOCC2)cc1 (stereo not given)
0.09 µM | CCN(C)C(=N)c1ccc(C(=O)N2CCN(S(=O)(=O)c3cc4ccc(Cl)cc4s3)CC2)cc1
0.03 µM | CN(C)C(=N)c1ccc(CN2CCN(S(=O)(=O)c3cc4ccc(Cl)cc4s3)CC2=O)cc1
0.006 µM | CN1CCN=C1c1ccc(C(=O)N2CCN(S(=O)(=O)c3cc4ccc(Cl)cc4s3)CC2CC(=O)N2CCCCC2)cc1 (stereo not given)
0.53 µM | O=C(c1ccc(C2=NCCN2)cc1)N1CCN(S(=O)(=O)c2ccc3cc(Br)ccc3c2)CC1
0.12 µM | N=C(c1ccc(C(=O)N2CCN(S(=O)(=O)c3cc4cc(Cl)ccc4[nH]3)CC2)cc1)N1CCCCC1
0.23 µM | CNC(=N)c1ccc(C(=O)N2CCN(S(=O)(=O)c3ccc4cc(Br)ccc4c3)CC2)cc1
0.012 µM | CCN1CCN=C1c1ccc(C(=O)N2CCN(S(=O)(=O)c3cc4cc(Cl)ccc4[nH]3)CC2)cc1
0.23 µM | CN(C)C(=N)c1ccc(C(=O)N2CCN(S(=O)(=O)c3ccc4cc(Br)ccc4c3)CC2)cc1
0.027 µM | CCN(C)C(=N)c1ccc(C(=O)N2CCN(S(=O)(=O)c3cc4cc(Cl)ccc4[nH]3)CC2)cc1
0.01 µM | CN(C)C(=O)CC1CN(S(=O)(=O)c2cc3cc(Cl)ccc3[nH]2)CCN1C(=O)c1ccc(C2=NCCN2C)cc1 (stereo not given)
0.07 µM | N=C(c1ccc(C(=O)N2CCN(S(=O)(=O)c3cc4ccc(Cl)cc4s3)CC2)cc1)N1CCCC1
0.031 µM | CN1CCN=C1c1ccc(C(=O)N2CCN(S(=O)(=O)c3ccc4cc(Br)ccc4c3)CC2)cc1
0.005 µM | CN1CCN=C1c1ccc(C(=O)N2CCN(S(=O)(=O)c3cc4cc(Cl)ccc4[nH]3)CC2CC(=O)N2CCC2)cc1 (stereo not given)

target: Kallikrein-1 (Homo sapiens, UniProt P06870); experiment: In vitro inhibitory activity against kallikrein was determined; conditions: not given
Sequence (P06870 whole entry): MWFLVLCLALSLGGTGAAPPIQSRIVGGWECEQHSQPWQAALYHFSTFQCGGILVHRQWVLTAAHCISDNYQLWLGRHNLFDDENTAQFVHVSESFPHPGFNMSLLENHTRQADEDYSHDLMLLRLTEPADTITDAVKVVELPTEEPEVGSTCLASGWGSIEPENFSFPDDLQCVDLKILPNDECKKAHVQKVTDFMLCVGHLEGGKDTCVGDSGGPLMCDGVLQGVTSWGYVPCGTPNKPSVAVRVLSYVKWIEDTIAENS

IC50 | SMILES
5.8 µM | CN1CCN=C1c1ccc(C(=O)N2CCN(S(=O)(=O)c3cc4cc(Cl)ccc4[nH]3)CC2)cc1

target: Prothrombin (Homo sapiens, UniProt P00734); conditions: not given

IC50 | SMILES
> 0.01 µM | CN1CCN=C1c1ccc(C(=O)N2CCN(S(=O)(=O)c3cc4ccc(Cl)cc4s3)CC2)cc1
0.0032 µM | CN1CCN=C1c1ccc(C(=O)N2CCN(S(=O)(=O)c3cc4ccc(Cl)cc4s3)CC2CC(=O)N2CCOCC2)cc1 (stereo not given)

tested on: not listed separately; experiment: Oral bioavailability in rat; format: ADME, organism-based; conditions: in vivo

bioavailability | SMILES
1.4% | CN1CCN=C1c1ccc(C(=O)N2CCN(S(=O)(=O)c3cc4cc(Cl)ccc4[nH]3)CC2)cc1
4.1% | CN(C)C(=N)c1ccc(CN2CCN(S(=O)(=O)c3cc4cc(Cl)ccc4[nH]3)CC2=O)cc1
< 1% | CN(C)C(=N)c1ccc(CN2CCN(S(=O)(=O)c3cc4ccc(Cl)cc4s3)CC2=O)cc1

tested on: not listed separately; experiment: Volume of distribution in rats; format: ADME, organism-based; conditions: rat, in vivo

Vd | SMILES
28.9 L/kg | CN1CCN=C1c1ccc(C(=O)N2CCN(S(=O)(=O)c3cc4cc(Cl)ccc4[nH]3)CC2)cc1

tested on: not listed separately; experiment: Half life in rats; format: ADME, organism-based; conditions: rat, in vivo

half-life | SMILES
7.8 h | CN1CCN=C1c1ccc(C(=O)N2CCN(S(=O)(=O)c3cc4cc(Cl)ccc4[nH]3)CC2)cc1

tested on: not listed separately; experiment: Plasma clearance in rats; format: ADME, organism-based; conditions: rat

clearance | SMILES
42.9 mL/min/kg | CN1CCN=C1c1ccc(C(=O)N2CCN(S(=O)(=O)c3cc4cc(Cl)ccc4[nH]3)CC2)cc1

— ChEMBL document CHEMBL1137970, “N,N-Dialkylated 4-(4-arylsulfonylpiperazine-1-carbonyl)-benzamidines and 4-((4-arylsulfonyl)-2-oxo-piperazin-1-ylmethyl)-benzamidines as potent factor Xa inhibitors” (Bioorg Med Chem Lett, 2004)
